The text below walks through data of US10703765B2 (priority 2014, dated 2020).

Counter-ions that a name gives are not always drawn.

In one assay the target is human σ1 receptor (Homo sapiens, UniProt Q99720). The assay can be described thus: biochemical. It counts as binding. Also noted: μ and σ1 dual binding: key to the marks not given beside the values.
Chain of human σ1 receptor (Q99720 whole entry): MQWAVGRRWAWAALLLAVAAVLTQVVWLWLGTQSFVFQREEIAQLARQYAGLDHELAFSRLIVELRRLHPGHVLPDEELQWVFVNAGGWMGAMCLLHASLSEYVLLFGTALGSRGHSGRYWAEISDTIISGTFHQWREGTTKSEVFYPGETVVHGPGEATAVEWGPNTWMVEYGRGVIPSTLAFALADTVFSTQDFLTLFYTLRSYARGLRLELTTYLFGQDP
Conditions: not given
On to `CC1OC2(CCN(CCc3ccccc3)CC2)CN(c2cccc(C#N)c2)C1=O.Cl` (stereo not shown) [Example 198, 3-(2-methyl-3-oxo-9-phenethyl-1-oxa-4,9-diazaspiro[5.5]undecan-4-yl)benzonitrile hydrochloride], for which the “μ and σ1 dual binding” value is “++”.

Consider `c1ccc(CCN2CCC3(CC2)CN(CCc2ccccc2)CCO3)cc1` [Example 337, 4,9-diphenethyl-1-oxa-4,9-diazaspiro[5.5]undecane dihydrochloride], for which the “μ and σ1 dual binding” value is listed as “++”.

The molecule `COc1cccc(CCN2CCC3(CC2)CN(c2ccccc2F)C(=O)C(C)O3)c1` (stereo not shown) [Example 83, 4-(2-fluorophenyl)-9-(3-methoxyphenethyl)-2-methyl-1-oxa-4,9-diazaspiro[5.5]undecan-3-one hydrochloride] registered a Ki of under 100 nM.

`CC1CN(Cc2ccn(C)n2)CC2(CCN(CCc3ccccc3)CC2)O1` (stereo not shown) [Example 328, 2-methyl-4-((1-methyl-1H-pyrazol-3-yl)methyl)-9-phenethyl-1-oxa-4,9-diazaspiro[5.5]undecane dihydrochloride]: the “μ and σ1 dual binding” value was “++”.

In turn, `COC(=O)CCN1CCC2(CC1)CN(Cc1ccccc1)CC1(CC1)O2` [Example 347, methyl 3-(12-benzyl-4-oxa-8,12-diazadispiro[2.1.5.3]tridecan-8-yl)propanoate] had a Ki of under 500 nM.

Regarding `COc1cccc(CCN2CCC3(CC2)CN(c2ccccc2)CCO3)c1.Cl` [Example 320, 9-(3-methoxyphenethyl)-4-phenyl-1-oxa-4,9-diazaspiro[5.5]undecane hydrochloride], the “μ and σ1 dual binding” value was “++”.

`CC1OC2(CCN(CCc3cc(C(F)(F)F)ccn3)CC2)CN(c2ccccc2)C1=O` (stereo not shown) [Example 28, 2-methyl-4-phenyl-9-(2-(4-(trifluoromethyl)pyridin-2-yl)ethyl)-1-oxa-4,9-diazaspiro[5.5]undecan-3-one hydrochloride] came in with a Ki of under 100 nM.

Molecule `O=C1N(c2ccccc2)CC2(CCN(CC(O)c3ccccc3)CC2)OC12CC2` (stereo not shown) [Example 277, 8-(2-hydroxy-2-phenylethyl)-12-phenyl-4-oxa-8,12-diazadispiro[2.1.5.3]tridecan-13-one] showed a Ki of under 100 nM.

For `COCCC=C1OC2(CCN(CCc3ccccc3)CC2)CN(c2ccccc2F)C1=O` [Example 142, 4-(2-fluorophenyl)-2-(3-methoxypropylidene)-9-phenethyl-1-oxa-4,9-diazaspiro[5.5]undecan-3-one], the Ki is under 500 nM.

With `CC1OC2(CCN(CCc3ccc(Cl)cn3)CC2)CN(c2ccccc2)C1=O` (stereo not shown) [Example 38, 9-(2-(5-chloropypridin-2-yl)ethyl)-2-methyl-4-phenyl-1-oxa-4,9-diazaspiro[5.5]undecan-3-one hydrochloride], the Ki was under 500 nM.

Take `CC1OC2(CCN(CCc3ccccc3)CC2)CN(c2ccc3ncsc3c2)C1=O` (stereo not shown) [Example 203, 4-(benzo[d]thiazol-6-yl)-2-methyl-9-phenethyl-1-oxa-4,9-diazaspiro[5.5]undecan-3-one]: the “μ and σ1 dual binding” value is on record as “++”.

Take `CC(C)C1OC2(CCN(CCc3ccccc3O)CC2)CN(c2ccccc2F)C1=O` (stereo not shown) [Example 297, 4-(2-fluorophenyl)-9-(2-hydroxyphenethyl)-2-isopropyl-1-oxa-4,9-diazaspiro[5.5]undecan-3-one]: the Ki is under 100 nM.

As for `CC1OC2(CCN(CCc3ccncc3Cl)CC2)CN(c2ccccc2)C1=O` (stereo not shown) [Example 50, 9-(2-(3-chloropyridin-4-yl)ethyl)-2-methyl-4-phenyl-1-oxa-4,9-diazaspiro[5.5]undecan-3-one hydrochloride], the Ki was under 500 nM.

`O=C1COC2(CCN(CCc3ccccc3)CC2)CN1Cc1ccc(C(F)(F)F)cn1` [Example 177, 9-phenethyl-4-((5-(trifluoromethyl)pyridin-2-yl)methyl)-1-oxa-4,9-diazaspiro[5.5]undecan-3-one hydrochloride] yielded a Ki of under 100 nM.

The assay is the same for the next values; noted with them: combined class from Ki-σ1 (human σ1 receptor, A1) and Ki-μ (human μ-opioid receptor, A2) radioligand binding.
`CC(C)C1OC2(CCN(CCc3ccccc3OCCO)CC2)CN(c2ccccc2F)C1=O` (stereo not shown) [Example 281, 4-(2-fluorophenyl)-9-(2-(2-hydroxyethoxy)phenethyl)-2-isopropyl-1-oxa-4,9-diazaspiro[5.5]undecan-3-one]: the “μ and σ1 dual binding” value is listed as “++”.

With `O=C1C(CO)OC2(CCN(CCc3ccccc3O)CC2)CN1c1ccccc1F` (stereo not shown) [Example 301, 4-(2-fluorophenyl)-2-(hydroxymethyl)-9-(2-hydroxyphenethyl)-1-oxa-4,9-diazaspiro[5.5]undecan-3-one], the “μ and σ1 dual binding” value is reported as “++”.

As to `CC1OC2(CCN(CCc3ccnc(N)c3)CC2)CN(c2ccccc2)C1=O` (stereo not shown) [Example 32, 9-(2-(2-aminopyridin-4-yl)ethyl)-2-methyl-4-phenyl-1-oxa-4,9-diazaspiro[5.5]undecan-3-one], the “μ and σ1 dual binding” value is “++”.

With `COc1ccnc(CCN2CCC3(CC2)CN(c2ccccc2)C(=O)C(C)O3)c1` (stereo not shown) [Example 35, 9-(2-(4-methoxypyridin-2-yl)ethyl)-2-methyl-4-phenyl-1-oxa-4,9-diazaspiro[5.5]undecan-3-one], the “μ and σ1 dual binding” value was “++”.

As to `O=C1COC2(CCN(CCc3ccccc3)CC2)CN1c1ccccc1O` [Example 286, 4-(2-hydroxyphenyl)-9-phenethyl-1-oxa-4,9-diazaspiro[5.5]undecan-3-one], the “μ and σ1 dual binding” value is “++”.

Staying with this assay, now noted: read-out: μ and σ1 dual binding.
In the case of `COC(=O)CCN1CC2(CCN(CCc3ccccc3)CC2)OC2(CC2)C1=O` [Example 186, methyl 3-(13-oxo-8-phenethyl-4-oxa-8,12-diazadispiro[2.1.5.3]tridecan-12-yl)propanoate], the Ki was over 500 nM.

For the molecule `O=C1COC2(CCN(CCc3ccccn3)CC2)CN1Cc1ccc(C(F)(F)F)cn1` [Example 98, 9-(2-(pyridin-2-yl)ethyl)-4-((5-(trifluoromethyl)pyridin-2-yl)methyl)-1-oxa-4,9-diazaspiro[5.5]undecan-3-one hydrochloride], the Ki was under 500 nM.

Turning to `c1ccc(CCN2CCC3(CC2)CN(Cc2cscn2)CCO3)cc1` [Example 325, 9-phenethyl-4-(thiazol-4-ylmethyl)-1-oxa-4,9-diazaspiro[5.5]undecane dihydrochloride], the Ki was under 500 nM.

On to `CC1OC2(CCN(CCc3ccccc3)CC2)CN(c2cccnc2C(F)(F)F)C1=O` (stereo not shown) [Example 215, 2-methyl-9-phenethyl-4-(2-(trifluoromethyl)pyridin-3-yl)-1-oxa-4,9-diazaspiro[5.5]undecan-3-one hydrochloride], for which the Ki was under 500 nM.

As for `Nc1nc(CCN2CCC3(CC2)CN(Cc2ccc(C(F)(F)F)cn2)C(=O)CO3)cs1` [Example 304, 9-(2-(2-aminothiazol-4-yl)ethyl)-4-((5-(trifluoromethyl)pyridin-2-yl)methyl)-1-oxa-4,9-diazaspiro[5.5]undecan-3-one], the Ki was under 500 nM.

As for `COc1cccc(CCN2CCC3(CC2)CN(c2ccccc2)C(=O)CO3)c1` [Example 132, 9-(3-methoxyphenethyl)-4-phenyl-1-oxa-4,9-diazaspiro[5.5]undecan-3-one], the Ki is under 500 nM.

For `O=C(O)CC1OC2(CCN(CCc3ccccc3)CC2)CN(c2ccccc2)C1=O` (stereo not shown) [Example 270, 2-(3-oxo-9-phenethyl-4-phenyl-1-oxa-4,9-diazaspiro[5.5]undecan-2-yl)acetic acid hydrochloride], the Ki was over 500 nM.

Regarding `CC1OC2(CCN(CCc3ccccc3)CC2)CN(c2cccc(C(F)(F)F)n2)C1=O` (stereo not shown) [Example 207, 2-methyl-9-phenethyl-4-(6-(trifluoromethyl)pyridin-2-yl)-1-oxa-4,9-diazaspiro[5.5]undecan-3-one], the Ki was under 100 nM.

With `O=C1N(c2ncccc2C(F)(F)F)CC2(CCN(CCc3ccccc3F)CC2)OC12CC2` [Example 220, 8-(2-fluorophenethyl)-12-(3-(trifluoromethyl)pyridin-2-yl)-4-oxa-8,12-diazadispiro[2.1.5.3]tridecan-13-one hydrochloride], the Ki was under 500 nM.

Take `O=C1N(c2cnccc2C(F)(F)F)CC2(CCN(CCc3ccccc3F)CC2)OC12CC2` [Example 223, 8-(2-fluorophenethyl)-12-(4-(trifluoromethyl)pyridin-3-yl)-4-oxa-8,12-diazadispiro[2.1.5.3]tridecan-13-one hydrochloride]: the Ki is under 100 nM.

`CC1(C)OC2(CCN(CCc3ccccc3)CC2)CN(c2ccccc2)C1=O` [Example 18, 2,2-dimethyl-9-phenethyl-4-phenyl-1-oxa-4,9-diazaspiro[5.5]undecan-3-one]: the Ki was under 100 nM.

Turning to `CC1OC2(CCN(CCc3cccc(N)n3)CC2)CN(c2cnccc2C(F)(F)F)C1=O` (stereo not shown) [Example 42, 9-(2-(6-aminopyridin-2-yl)ethyl)-2-methyl-4-(4-(trifluoromethyl)pyridin-3-yl)-1-oxa-4,9-diazaspiro[5.5]undecan-3-one hydrochloride], the Ki was over 500 nM.

Take `O=C1COC2(CCN(CCc3cccc(O)c3)CC2)CN1c1ccccc1` [Example 291, 9-(3-hydroxyphenethyl)-4-phenyl-1-oxa-4,9-diazaspiro[5.5]undecan-3-one]: the Ki is under 500 nM.

Regarding `CC1OC2(CCN(CCc3ccc(S(N)(=O)=O)cc3)CC2)CN(c2ccccc2)C1=O` (stereo not shown) [Example 108, 4-(2-(2-methyl-3-oxo-4-phenyl-1-oxa-4,9-diazaspiro[5.5]undecan-9-yl)ethyl)benzenesulfonamide], the Ki is over 500 nM.

Take `O=C1COC2(CCN(CCc3ccccc3)CC2)CN1c1ccccc1` [Example 5, 9-phenethyl-4-phenyl-1-oxa-4,9-diazaspiro[5.5]undecan-3-one]: the Ki is under 500 nM.

Regarding `CC1OC2(CCN(CC(=O)N3CCCCC3)CC2)CN(c2ccccc2)C1=O` (stereo not shown) [Example 129, 2-methyl-9-(2-oxo-2-(piperidin-1-yl)ethyl)-4-phenyl-1-oxa-4,9-diazaspiro[5.5]undecan-3-one], the Ki was over 500 nM.

Consider `CC1OC2(CCN(CCOc3cccnc3)CC2)CN(c2ccccc2)C1=O` (stereo not shown) [Example 145, 2-methyl-4-phenyl-9-(2-(pyridin-3-yloxy)ethyl)-1-oxa-4,9-diazaspiro[5.5]undecan-3-one hydrochloride], for which the Ki is over 500 nM.

With `CC1OC2(CCN(CCN3CCCC3=O)CC2)CN(c2ccccc2)C1=O` (stereo not shown) [Example 146, 2-methyl-9-(2-(2-oxopyrrolidin-1-yl)ethyl)-4-phenyl-1-oxa-4,9-diazaspiro[5.5]undecan-3-one], the Ki is over 500 nM.
